The text below walks through data of US20220089592A1, “IMIDAZO[1,2-A]PYRIDINYL DERIVATIVES AS IRAK4 INHIBITORS” (priority 2019, published 2022).

Structures are written as SMILES. Where a name gives a salt, the structure may show the parent alone.

This experiment has as its target T1, IRAK4 (Homo sapiens, UniProt Q9NWZ3).
T1 sequence (Q9NWZ3 1-460): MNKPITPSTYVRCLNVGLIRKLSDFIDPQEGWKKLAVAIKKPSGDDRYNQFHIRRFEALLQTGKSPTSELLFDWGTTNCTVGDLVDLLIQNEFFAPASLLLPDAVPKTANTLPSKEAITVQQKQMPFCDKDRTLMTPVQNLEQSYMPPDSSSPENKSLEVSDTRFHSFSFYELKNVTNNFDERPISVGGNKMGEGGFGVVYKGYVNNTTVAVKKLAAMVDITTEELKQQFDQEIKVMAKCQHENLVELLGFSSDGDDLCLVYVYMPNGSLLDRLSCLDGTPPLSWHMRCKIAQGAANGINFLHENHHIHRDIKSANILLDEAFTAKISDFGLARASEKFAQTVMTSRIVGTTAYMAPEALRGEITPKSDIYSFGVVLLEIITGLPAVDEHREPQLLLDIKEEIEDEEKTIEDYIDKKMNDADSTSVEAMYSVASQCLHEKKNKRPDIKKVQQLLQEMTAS
Nature of the experiment: 2-hour 1 mM ATP IRAK4 Biochemical assay (as above, but with 100 pM IRAK4 and 1 mM ATP). The conditions noted are these: IRAK4 MSD BIOCHEMICAL (1 mM ATP) IC50 (μM), 100 pM IRAK4, 2 hours. The gist of the method:
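Run with 100 pM IRAK4 and 1 mM ATP for 2 hours, quenched with EDTA pH 8. Phosphorylated biotinylated peptide captured on streptavidin MSD plates and detected with anti-phosphothreonine antibody plus Sulfo-Tag secondary by electrochemiluminescence.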
For `CC(C)Oc1c(NC(=O)c2ccn(C(C)C)n2)cn2cc(C34COC(C)(C3)C4)nc2c1F` [Example 546, N-(8-fluoro-7-isopropoxy-2-(1-methyl-2-oxabicyclo[2.1.1]hexan-4-yl)imidazo[1,2-a]pyridin-6-yl)-1-isopropyl-1H-pyrazole-3-carboxamide 2,2,2-trifluoroacetate], the concentration for half-maximal inhibition (IC50) (as a rule, the concentration that inhibits the measured activity by half) is 0.001 µM. To `CC(C)Oc1c(NC(=O)c2ccn(C(F)F)n2)cn2cc(C34COC(C)(C3)C4)nc2c1F` [Example 547, 1-(difluoromethyl)-N-(8-fluoro-7-isopropoxy-2-(1-methyl-2-oxabicyclo[2.1.1]hexan-4-yl)imidazo[1,2-a]pyridin-6-yl)-1H-pyrazole-3-carboxamide] belongs 0.001 µM; to `CC(C)Oc1c(NC(=O)c2cccc3ccnn23)cn2cc(C34COC(C)(C3)C4)nc2c1F` [Example 548, N-(8-fluoro-7-isopropoxy-2-(1-methyl-2-oxabicyclo[2.1.1]hexan-4-yl)imidazo[1,2-a]pyridin-6-yl)pyrazolo[1,5-a]pyridine-7-carboxamide 2,2,2-trifluoroacetate], 0.001 µM; to `COc1nc(NC(=O)c2cccc(C(F)F)n2)cn2cc(C3CCCOC3)nc12` (stereo not shown) [Example 549, 6-(difluoromethyl)-N-(8-methoxy-2-(tetrahydro-2H-pyran-3-yl)imidazo[1,2-a]pyrazin-6-yl)picolinamide], 0.005 µM. Regarding `COc1nc(NC(=O)c2cccc(C(F)F)n2)cn2cc(C34COCC3C4)nc12` (stereo not shown) [Example 550, N-(2-(3-oxabicyclo[3.1.0]hexan-1-yl)-8-methoxyimidazo[1,2-a]pyrazin-6-yl)-6-(difluoromethyl)picolinamide 2,2,2-trifluoroacetate], half-maximal inhibition (IC50) was put at 0.055 µM. To `COc1nc(NC(=O)c2cccc(C(F)F)n2)cn2cc(C3C4COCC43)nc12` (stereo not shown) [Example 551, N-(2-(3-oxabicyclo[3.1.0]hexan-6-yl)-8-methoxyimidazo[1,2-a]pyrazin-6-yl)-6-(difluoromethyl)picolinamide 2,2,2-trifluoroactetate] belongs 0.026 µM; to `COc1nc(NC(=O)c2cccc(C(F)F)n2)cn2cc(C34CC(C(F)F)(C3)C4)nc12` [Example 552, 6-(difluoromethyl)-N-(2-(3-(difluoromethyl)bicyclo[1.1.1]pentan-1-yl)-8-methoxyimidazo[1,2-a]pyrazin-6-yl)picolinamide 2,2,2-trifluoroacetate], 0.017 µM.

Turning to `COc1nc(NC(=O)c2cccc(C(F)F)n2)cn2cc(C34CC(OC)(C3)C4)nc12` [Example 553, 6-(difluoromethyl)-N-(8-methoxy-2-(3-methoxybicyclo[1.1.1]pentan-1-yl)imidazo[1,2-a]pyrazin-6-yl)picolinamide 2,2,2-trifluoroacetate], half-maximal inhibition (IC50) was put at 0.011 µM. To `COc1nc(NC(=O)c2cccc(C(F)F)n2)cn2cc(C34COC(C)(C3)C4)nc12` [Example 554, 6-(difluoromethyl)-N-(8-methoxy-2-(1-methyl-2-oxabicyclo[2.1.1]hexan-4-yl)imidazo[1,2-a]pyrazin-6-yl)picolinamide 2,2,2-trifluoroacetate] belongs 0.011 µM; to `COc1nc(NC(=O)c2cccc(C(F)F)n2)cn2cc(C34CCOC(C)(C3)C4)nc12` [Example 555, 6-(difluoromethyl)-N-(8-methoxy-2-(1-methyl-2-oxabicyclo[3.1.1]heptan-5-yl)imidazo[1,2-a]pyrazin-6-yl)picolinamide], 0.007 µM. The molecule `COc1nc(NC(=O)c2cccc(C(F)F)n2)cn2cc(C3C4CCOCC43)nc12` (stereo not shown) [Example 556, N-(2-(3-oxabicyclo[4.1.0]heptan-7-yl)-8-methoxyimidazo[1,2-a]pyrazin-6-yl)-6-(difluoromethyl)picolinamide 2,2,2-trifluoroacetate] came in with an IC50 of 0.005 µM. `COc1nc(NC(=O)c2cccc(C(F)F)n2)cn2cc(C3CC4(CCOC4)C3)nc12` (stereo not shown) [Example 557, 6-(difluoromethyl)-N-(8-methoxy-2-(6-oxaspiro[3.4]octan-2-yl)imidazo[1,2-a]pyrazin-6-yl)picolinamide 2,2,2-trifluoroacetate] showed an IC50 of 0.006 µM. The IC50 values of the last two molecules are within 1.5-fold of each other. The value for `COc1nc(NC(=O)c2cccc(C(F)F)n2)cn2cc(C3CC34CCOCC4)nc12` (stereo not shown) [Example 558, 6-(difluoromethyl)-N-(8-methoxy-2-(6-oxaspiro[2.5]octan-1-yl)imidazo[1,2-a]pyrazin-6-yl)picolinamide 2,2,2-trifluoroacetate] was 0.044 µM; that for `COc1nc(NC(=O)c2cccc(C(F)F)n2)cn2cc(C34COC(CF)(C3)C4)nc12` [Example 559, 6-(difluoromethyl)-N-(2-(1-(fluoromethyl)-2-oxabicyclo[2.1.1]hexan-4-yl)-8-methoxyimidazo[1,2-a]pyrazin-6-yl)picolinamide] was 0.012 µM; that for `COc1nc(NC(=O)c2cccc(C(F)F)n2)cn2cc(C3CCOC(C)(C)C3)nc12` (stereo not shown) [Example 560, 6-(difluoromethyl)-N-(2-(2,2-dimethyltetrahydro-2H-pyran-4-yl)-8-methoxyimidazo[1,2-a]pyrazin-6-yl)picolinamide 2,2,2-trifluoroacetate] was 0.002 µM.

`COc1nc(NC(=O)c2cccc(C(F)F)n2)cn2cc(C34CCC(CC3)OC4)nc12` [Example 561, N-(2-(2-oxabicyclo[2.2.2]octan-4-yl)-8-methoxyimidazo[1,2-a]pyrazin-6-yl)-6-(difluoromethyl)picolinamide] yielded a half-inhibitory concentration (IC50) of 0.051 µM. The molecule `COc1nc(NC(=O)c2cccc(C(F)F)n2)cn2cc(C3CC3)nc12` [Example 562, N-(2-cyclopropyl-8-methoxyimidazo[1,2-a]pyrazin-6-yl)-6-(difluoromethyl)picolinamide 2,2,2-trifluoroacetate] gave a concentration for half-maximal inhibition (IC50) of 0.053 µM. This IC50 and that of the molecule before are within 1.5-fold of each other. Regarding `COc1nc(NC(=O)c2cccc(C(F)F)n2)cn2cc(CCOC(F)(F)F)nc12` [Example 563, 6-(difluoromethyl)-N-(8-methoxy-2-(2-(trifluoromethoxy)ethyl)imidazo[1,2-a]pyrazin-6-yl)picolinamide 2,2,2-trifluoroacetate], the 50% inhibitory concentration (IC50) is 0.046 µM. To `COc1nc2nc(C3CC(OC)C3)cn2cc1NC(=O)c1cccc(C(F)F)n1` (stereo not shown) [Example 564, 6-(difluoromethyl)-N-(7-methoxy-2-(3-methoxycyclobutyl)imidazo[1,2-a]pyrimidin-6-yl)picolinamide] belongs 0.032 µM; to `COc1nc2nc(C34CC(OC)(C3)C4)cn2cc1NC(=O)c1cccc(C(F)F)n1` [Example 565, 6-(difluoromethyl)-N-(7-methoxy-2-(3-methoxybicyclo[1.1.1]pentan-1-yl)imidazo[1,2-a]pyrimidin-6-yl)picolinamide], 0.01 µM; to `COc1nc2nc(C34CC(F)(C3)C4)cn2cc1NC(=O)c1cccc(C(F)F)n1` [Example 566, 6-(difluoromethyl)-N-(2-(3-fluorobicyclo[1.1.1]pentan-1-yl)-7-methoxyimidazo[1,2-a]pyrimidin-6-yl)picolinamide 2,2,2-trifluoroacetate], 0.054 µM. The value for `COc1nc2nc(C34COC(C)(C3)C4)cn2cc1NC(=O)c1cccc(C(F)F)n1` [Example 567, 6-(difluoromethyl)-N-(7-methoxy-2-(1-methyl-2-oxabicyclo[2.1.1]hexan-4-yl)imidazo[1,2-a]pyrimidin-6-yl)picolinamide 2,2,2-trifluoroacetate] was 0.008 µM; that for `COc1nc2nc(C3C4COCC43)cn2cc1NC(=O)c1cccc(C(F)F)n1` (stereo not shown) [Example 568, N-(2-(3-oxabicyclo[3.1.0]hexan-6-yl)-7-methoxyimidazo[1,2-a]pyrimidin-6-yl)-6-(difluoromethyl)picolinamide 2,2,2-trifluoroacetate] was 0.009 µM.

For `COc1nc2nc(C3CCCOC3)cn2cc1NC(=O)c1cccc(C(F)F)n1` (stereo not shown) [Example 569, 6-(difluoromethyl)-N-(7-methoxy-2-(tetrahydro-2H-pyran-3-yl)imidazo[1,2-a]pyrimidin-6-yl)picolinamide], the 50% inhibitory concentration (IC50) stood at 0.004 µM. To `CCOc1nc2nc(C3CCOCC3)cn2cc1NC(=O)c1ccc2c(n1)CCC2` [Example 570, N-(7-ethoxy-2-(tetrahydro-2H-pyran-4-yl)imidazo[1,2-a]pyrimidin-6-yl)-6,7-dihydro-5H-cyclopenta[b]pyridine-2-carboxamide hydrochloride] belongs 0.005 µM.

`CC(C)Oc1nc2nc(C34CC(C3)C4)cn2cc1NC(=O)c1cccc(C(F)F)n1` [Example 573, N-(2-(bicyclo[1.1.1]pentan-1-yl)-7-isopropoxyimidazo[1,2-a]pyrimidin-6-yl)-6-(difluoromethyl)picolinamide 2,2,2-trifluoroacetate] had a half-maximal inhibitory concentration (IC50) of 0.003 µM. With `CCCOc1nc(NC(=O)c2cccc(C(F)F)n2)cn2cc(C34COC(C)(C3)C4)nc12` [Example 574, 6-(difluoromethyl)-N-(2-(1-methyl-2-oxabicyclo[2.1.1]hexan-4-yl)-8-propoxyimidazo[1,2-a]pyrazin-6-yl)picolinamide], the half-inhibitory concentration (IC50) worked out at 0.002 µM. This IC50 lies about 1.5-fold lower than the previous one. To `CC(C)Oc1cc2nc(C34COC(C)(C3)C4)c(Cl)n2cc1NC(=O)c1cccc(C(F)F)n1` [Example 575, N-(3-chloro-7-isopropoxy-2-(1-methyl-2-oxabicyclo[2.1.1]hexan-4-yl)imidazo[1,2-a]pyridin-6-yl)-6-(difluoromethyl)picolinamide 2,2,2-trifluoroacetate] belongs 0.012 µM.
